Drawing on US20120202794A1 (priority 2011, published 2012), this text covers CC90 and EC90 for 26 molecules.

The nature of series [1]: Cell cytotoxicity assay (MTS), CC90 as reported in Table 1, cell line not stated. The note with it: human, cell line not given. It is filed as cell-based. Put shortly: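 MTS read-out (490 nm, 2 h dye step) after 8-day exposure at 37° C. Huh7, HepG2, BxPC3 were seeded at 2×10^3 and CEM at 5×10^3 cells/well, with compound serially diluted from 100 μM. CC90 comes from comparison with untreated control wells.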

A further series concerns HCV Replicon 1b. Briefly: HCV inhibition assay, HCV replicon 1b (Clone A or ET-lunet cells; RT-PCR or luciferase reporter). It is filed as cell-based. The settings on record: Hepatitis C virus, 96 h, HCV replicon 1b; 4 days incubation; read-out: Replicon 1b potency EC90. A digest of the protocol:
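Inhibition read either as luciferase signal (ET replicon) or as HCV 5′-NTR RNA by RT-PCR relative to rRNA, % = (1−2^−ΔΔCt)×100, against DMSO controls, giving EC50 and EC90. Cells: Clone A or ET-lunet, seeded 1500 or 3000/well, exposed 4 days at 37 °C, 5% CO2, 0.5% DMSO.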
In general terms: In antiviral work, replicon cells carry a viral genome segment that copies itself.

What is called EC90 is the point of the concentration-response curve where the effect stands at 90%. Consider `CC(C)C[C@H]1C(=O)N[C@@H](c2ccccc2)CN1C(=O)c1cc(-c2ccc(Cl)cc2)no1` [Compound 316, (3S,6S)-4-(3-(4-chlorophenyl)isoxazole-5-carbonyl)-3-isobutyl-6-phenylpiperazin-2-one], for which the CC90 at 8 days in series [1] (MTS assay, 8 days incubation) was above 10 µM. Besides, the EC90 in the series on HCV Replicon 1b worked out at 0.28 µM.

In the case of `CC(C)C[C@H]1CN(C(=O)c2c[nH]c(-c3ccccc3)n2)[C@@H](CC(C)C)C(=O)N1` [Compound 101], the CC90 at 8 days in series [1] was above 10 µM. Also, the EC90 in the series with HCV Replicon 1b was above 10 µM.

As to `CC(C)C[C@H]1C(=O)N[C@@H](C2CCCC2)CN1C(=O)c1cc(-c2ccc(F)cc2)no1` [Compound 194], the CC90 at 8 days in series [1] was above 10 µM. The concentration for an effect of 90% (EC90) in the series on HCV Replicon 1b is 0.04 µM.

Consider `COc1ccc2c(c1)CCc1cc(C(=O)N3C[C@H](CC(C)C)NC(=O)[C@@H]3CC(C)C)sc1-2` [Compound 286, (3S,6S)-3,6-diisobutyl-4-(7-methoxy-4,5-dihydronaphtho[1,2-b]thiophene-2-carbonyl)piperazin-2-one], for which, in series [1] (MTS assay, 8 days incubation), the CC90 at 8 days is above 10 µM. The EC90 with HCV Replicon 1b turned out to be 3.91 µM.

As for `CC(C)C[C@H]1CN(C(=O)c2cc3ccccc3o2)[C@@H](CC(C)C)C(=O)N1` [Compound 76], in series [1], the CC90 at 8 days was above 10 µM. Besides, the EC90 in the series with HCV Replicon 1b stood at 9.18 µM.

Molecule `CC(C)C[C@H]1CN(C(=O)c2cn(-c3ccc(F)cc3)nn2)[C@@H](CC(C)C)C(=O)N1` [Compound 351, (3S,6S)-4-(1-(4-fluorophenyl)-1H-1,2,3-triazole-4-carbonyl)-3,6-diisobutylpiperazin-2-one] showed a CC90 at 8 days in series [1] (MTS assay, 8 days incubation) above 10 µM. Besides, in the series with HCV Replicon 1b, the EC90 is 1.63 µM.

Turning to `CCC[C@H]1CN(C(=O)[C@@H]2C[C@H]2c2ccc(Cl)cc2F)[C@@H](CC(C)C)C(=O)N1` [Compound 251], the CC90 at 8 days in series [1] was above 10 µM. For the same molecule, the 90% effect concentration (EC90) in the series on HCV Replicon 1b is 0.2 µM.

`CC(C)C[C@H]1CN(C(=O)c2noc(-c3ccc(Cl)cc3)n2)[C@@H](CC(C)C)C(=O)N1` [Compound 405, (3S,6S)-4-(5-(4-chlorophenyl)-1,2,4-oxadiazole-3-carbonyl)-3,6-diisobutylpiperazin-2-one] displayed a CC90 at 8 days in series [1] (MTS assay, 8 days incubation) above 10 µM. The 90% effect concentration (EC90) in the series on HCV Replicon 1b came out at 0.32 µM.

Regarding `CC(C)C[C@H]1C(=O)N[C@@H](c2ccccc2)N1C(=O)c1cc(-c2ccc(F)cc2)on1` [Compound 528, (2R,5S)-1-(5-(4-fluorophenyl)isoxazole-3-carbonyl)-5-isobutyl-2-phenylimidazolidin-4-one], the CC90 at 8 days in series [1] (MTS assay, 8 days incubation) is above 10 µM. In the series on HCV Replicon 1b, the EC90 was above 10 µM.

Consider `CSC[C@H]1CN(C(=O)c2nc(-c3ccc(F)cc3)no2)[C@@H](CC(C)C)C(=O)N1` [Compound 154], for which the CC90 at 8 days in series [1] is above 10 µM. Besides, in the series with HCV Replicon 1b, the EC90 was found to be 0.78 µM.

Take `CC(C)C[C@H]1C(=O)N[C@@H](C2CCCC2)CN1C(=O)[C@@H]1C[C@H]1c1ccc(F)cc1F` [Compound 325, (3S,6S)-6-cyclopentyl-4-((1R,2R)-2-(2,4-difluorophenyl)cyclopropanecarbonyl)-3-isobutylpiperazin-2-one]: in series [1] (MTS assay, 8 days incubation), the CC90 at 8 days was above 10 µM. Further, the EC90 with HCV Replicon 1b was above 10 µM.

In series [1], `CC(C)C[C@H]1CN(C(=O)c2nc(-c3ccc(F)cc3)no2)[C@@H](CC(C)C)C(=O)N1` [Compound 148] showed a CC90 at 8 days above 10 µM. Moreover, the EC90 with HCV Replicon 1b is 0.37 µM.

For the molecule `CC(C)C[C@H]1C(=O)N[C@@H](C2CCCC2)CN1C(=O)[C@@H]1C[C@H]1c1ccc(F)c(F)c1` [Compound 259, (3S,6S)-6-Cyclopentyl-4-[(1R,2R)-2-(3,4-difluoro-phenyl)-cyclopropanecarbonyl]-3-isobutyl-piperazin-2-one], the CC90 at 8 days in series [1] was above 10 µM. The EC90 in the series with HCV Replicon 1b was 0.59 µM.

With `CCC[C@H]1C(=O)N[C@@H](c2ccccc2)CN1C(=O)[C@@H]1C[C@H]1c1ccccc1` [Compound 399, (3S,6S)-6-phenyl-4-((1R,2R)-2-phenylcyclopropanecarbonyl)-3-propylpiperazin-2-one], in series [1] (MTS assay, 8 days incubation), the CC90 at 8 days is above 10 µM. Besides, in the series on HCV Replicon 1b, the EC90 amounted to 2.07 µM.

`CCC[C@H]1CN(C(=O)c2cc(-c3ccc(F)cc3F)on2)[C@@H](CC(C)C)C(=O)N1` [Compound 165] came in with a CC90 at 8 days in series [1] above 10 µM. Further, the EC90 in the series with HCV Replicon 1b came out at 0.34 µM.

As for `CCC[C@H]1CN(C(=O)c2cc(-c3ccc(Cl)cc3)no2)[C@@H](CC(C)C)C(=O)N1` [Compound 313, (3S,6S)-4-(3-(4-chlorophenyl)isoxazole-5-carbonyl)-3-isobutyl-6-propylpiperazin-2-one], the CC90 at 8 days in series [1] (MTS assay, 8 days incubation) was above 10 µM. Besides, in the series with HCV Replicon 1b, the 90% effect concentration (EC90) is 0.39 µM.

Take `Cc1ccc(-c2cc(C(=O)N3C[C@H](CC(C)C)NC(=O)[C@@H]3CC(C)C)no2)cc1` [Compound 126]: the CC90 at 8 days in series [1] is above 10 µM. In addition, the EC90 in the series with HCV Replicon 1b came out at 1.66 µM.

In series [1] (MTS assay, 8 days incubation), `CC(C)C[C@H]1CN(C(=O)/C=C/c2ccccc2F)[C@@H](CC(C)C)C(=O)N1` [Compound 266] had a CC90 at 8 days above 10 µM. In addition, in the series with HCV Replicon 1b, the EC90 was determined as 7.93 µM.

`CC(C)C[C@H]1CN(C(=O)c2ccc(-c3ccccc3)o2)[C@@H](CC(C)C)C(=O)N1` [Compound 97] displayed a CC90 at 8 days in series [1] above 10 µM. The EC90 in the series with HCV Replicon 1b was 7.28 µM.

Molecule `CCN1C(=O)[C@H](CC(C)C)N(C(=O)c2cc(-c3ccc(F)cc3)on2)C[C@@H]1c1ccccc1` [Compound 322, (3S,6S)-1-ethyl-4-(5-(4-fluorophenyl)isoxazole-3-carbonyl)-3-isobutyl-6-phenylpiperazin-2-one] showed a CC90 at 8 days in series [1] (MTS assay, 8 days incubation) above 10 µM. For the same molecule, the EC90 with HCV Replicon 1b is above 10 µM.

As for `CC(C)C[C@H]1C(=O)N[C@@H](C2CCCCC2)CN1Cc1cc(-c2ccc(F)cc2)on1` [Compound 207, (3S,6S)-6-cyclohexyl-4-((5-(4-fluorophenyl)isoxazol-3-yl)methyl)-3-isobutylpiperazin-2-one], in series [1], the CC90 at 8 days was above 10 µM. In addition, the EC90 in the series with HCV Replicon 1b is 0.86 µM.

In series [1] (MTS assay, 8 days incubation), `Cc1ccccc1[C@H]1CN(C(=O)c2cc(-c3ccc(F)cc3)on2)[C@@H](CC(C)C)C(=O)N1` [Compound 361, (3S,6S)-4-(5-(4-fluorophenyl)isoxazole-3-carbonyl)-3-isobutyl-6-(o-tolyl)piperazin-2-one] came in with a CC90 at 8 days above 10 µM. In addition, the 90% effect concentration (EC90) in the series on HCV Replicon 1b is 1.42 µM.

Turning to `CC(C)C[C@H]1C(=O)N[C@@H](C2CC2)CN1C(=O)c1cc(-c2ccc(F)cc2)on1` [Compound 180], in series [1], the CC90 at 8 days is above 10 µM. Besides, in the series on HCV Replicon 1b, the concentration for an effect of 90% (EC90) was 0.6 µM.

`CC(C)C[C@H]1C(=O)N[C@@H](c2ccc(C(F)(F)F)cc2)CN1C(=O)[C@@H]1C[C@H]1c1ccccc1` [Compound 364, (3S,6S)-3-isobutyl-4-((1R,2R)-2-phenylcyclopropanecarbonyl)-6-(4-(trifluoro-methyl)phenyl)piperazin-2-one] returned a CC90 at 8 days in series [1] (MTS assay, 8 days incubation) above 10 µM. Also, the EC90 with HCV Replicon 1b was above 10 µM.

Molecule `CC[C@@H](C)[C@H]1C(=O)N[C@@H](c2ccccc2)CN1C(=O)c1cc(-c2ccc(F)cc2)on1` [Compound 339, (3S,6S)-3-((R)-sec-butyl)-4-(5-(4-fluorophenyl)isoxazole-3-carbonyl)-6-phenylpiperazin-2-one] came in with a CC90 at 8 days in series [1] (MTS assay, 8 days incubation) above 10 µM. In the series with HCV Replicon 1b, the 90% effect concentration (EC90) stood at 0.8 µM.

The molecule `CC(C)C[C@H]1CN(C(=O)/C=C/c2ccc(F)c(Cl)c2)[C@@H](CC(C)C)C(=O)N1` [Compound 85] yielded a CC90 at 8 days in series [1] above 10 µM. Moreover, the EC90 in the series on HCV Replicon 1b stood at 8.65 µM.
